Results as given in US10813931B2, “Methods and compositions relating to the treatment of cancer” (THE BRIGHAM AND WOMEN'S HOSPITAL, INC., priority 2013, dated 2020).

Key:
TNBC = settings: 2011, cited from earlier work
231 parent and DTC = experiment: Cell viability (MTS) and drug sensitivity index, 231 parent vs DTC vs 231Phenocopy; type: cell-based, human; settings: for cell viability of DTC, SFK and BCR-Abl inhibition separately and in combination: 231 DTC, PP2 and imatinib in combination
Procedure: (§1) Following viability analyses conducted as described in supplemental data, drug sensitivity index (SI) was determined as follows: Cell viability was determined as % of control for treatment conditions of 10 nM, 100 nM 1000 nM and 10 μM to generate an average cell viability across these 4 drug concentrations. SI was calculated as a ratio of parent:DTC or parent:parent^phenocopy. SI=1 correlates to parental sensitivity, SI<1 correlates to resistance compared to parent cell line and SI>1 correlates to enhanced sensitivity to the indicated drug compared to the parent cell line at the same concentration average.
as §1, with “Cells were exposed to indicated treatments ([…]) for 48 hours in serum containing medium. Following” for “Following”, “incubation, cells were washed 1 time with PBS and recovered” for “viability analyses conducted as described”, “serum and phenol red-free RPMI or DMEM and subsequently treated with MTS following manufacturer protocol (Promega, Madison, Wis.). Drug” for “supplemental data, drug”

AKT signaling = experiment: Western blot of phosphorylated and total Akt in 231 DTC; type: cell-based, human; settings: increasing doses, 4 h
Procedure: Laemli sample buffer was prepared as a 5× solution containing β-mercaptoethanol as a reducing agent. Immunoprecipitaion was performed using both classic and direct IP kits purchased from Pierce following manufacturer protocols (Thermo Fisher inc. Rockford, Ill.). Briefly, cell lysates were prepared using IP/Lysis Buffer (Thermo Fisher inc. Rockford, Ill.) in the presence of 2×HALT protease/phosphatase inhibitor cocktail (Thermo Fisher inc. Rockford, Ill.). For classic Immunoprecipitation, lysates were combined with indicated antibodies for 48 hours at 4 C and combined with protein A/G agarose beads for 4 hours prior to elution with 2× Laemli Buffer at 100 C. Direct immunoprecipitation was performed following manufacturer protocol. Briefly, antibodies were covalently attached to agarose beads, lysate was combined with antibody-agarose bead conjugates for 24 hours prior to washes and elution with provided Elution Buffer. Protein samples were resolved by SDS-PAGE and transferred to PVDF membranes prior to incubation at 4 C with indicated primary antibodies. […] Optical densities of western blots were measured using ImageJ™ open source software (National Institutes of Health) and validated using Adobe CS5™.

[1] = test system: DTC subsets derived from multiple cancer types; experiment: Drug sensitivity index of dasatinib in DTC isolated from multiple cell lines; type: cell-based; settings: DTC from multiple cell lines vs parent, 48 h
Procedure: as §1
Parent cells DTC or Parent^Phenocopy were generated as described and plated at a concentration of 1.5×10^5 in a clear bottom 96-well plate. Cells were exposed to indicated treatments ([…]) for 48 hours in serum containing medium. Following incubation, cells were washed 1 time with PBS and recovered in serum and phenol red-free RPMI or DMEM and subsequently treated with MTS following manufacturer protocol (Promega, Madison, Wis.). Drug sensitivity index (SI) was determined as follows: Cell viability was determined as % of control for treatment conditions of 10 nM, 100 nM 1000 nM and 10 μM to generate an average cell viability across these 4 drug concentrations. SI was calculated as a ratio of parent:DTC or parent:parent^phenocopy. […]

231 DTC and 468DTC = experiment: Cell viability of DTC subsets with dasatinib, PI103, combination or DPNP; type: cell-based, human; settings: combination of PI103 and dasatinib (1:1), 48 h
Procedure: Parent cells DTC or Parent^Phenocopy were generated as described and plated at a concentration of 1.5×10^5 in a clear bottom 96-well plate. Cells were exposed to indicated treatments ([…]) for 48 hours in serum containing medium. Following incubation, cells were washed 1 time with PBS and recovered in serum and phenol red-free RPMI or DMEM and subsequently treated with MTS following manufacturer protocol (Promega, Madison, Wis.). Drug sensitivity index (SI) was determined as follows: Cell viability was determined as % of control for treatment conditions of 10 nM, 100 nM 1000 nM and 10 μM to generate an average cell viability across these 4 drug concentrations. SI was calculated as a ratio of parent:DTC or parent:parent^phenocopy. SI=1 correlates to parental sensitivity, SI<1 correlates to resistance compared to parent cell line and SI>1 correlates to enhanced sensitivity to the indicated drug compared to the parent cell line at the same concentration average.

[2] = test system: explant from stage IV, metastatic breast cancer patient; experiment: Refractory stage IV metastatic breast cancer explant, caspase activation; design: species or system human; settings: combination of dasatinib with DTX, 48 h
Procedure: Fresh tumor tissues were collected from breast cancer patients immediately after surgical resection at HCG cancer hospital, Bangalore, India. The tumor samples were transported to the laboratory at 4° C., in appropriate transport buffer within 60 minutes post-resection, for ex-vivo studies and molecular and pathological evaluation. Tissues were cut into thin sections and cultured in 96 well plate using optimized conditions (Radhakrishnan et al., 2013). Tumors were treated with a taxane-containing regimen (Docetaxel+Doxorubicin+Cyclophosphamide) or other drugs as indicated. DMSO was used as a vehicle control. After 48 hrs of treatment, tumor cell viability was measured and release of soluble cleaved caspase-3 and caspase-8 were determined.
Human Tumor tissues were fixed in Phos stop (Roche) containing 4% buffered formalin and embedded in paraffin. Prior to immunohistochemical staining of target proteins 4-μm-thick tissue sections mounted in poly L lysine coated glass slides were deparaffinized and rehydrated. Heat induced antigen retrieval was achieved using citrate buffer (pH7.8). […] Immunoreactivity was scored by intensity of staining (0, no staining, 1 weak; 2 moderate; 3 strong) and percentage of positive cells. By multiplying both values, a final score was calculated. […]

[3] = test system: 4T-1 mouse mammary carcinoma; experiment: 4T-1 tumor growth in Balb/C mice; type: in vivo
Procedure: 4-6 week old Balb/C mice (Charles River, Cambridge Mass.) were inoculated with 10^6 4 T-1 mouse mammary carcinoma cells in the left flank (Charles River, Cambridge Mass.). Mice identified with tumors were treated with docetaxel (DTX) or vehicle twice at 72 hour intervals at 10 mg/kg i.v. or 15 mg/kg i.p. and subsequently treated with dasatinib i.p. or nanoparticles i.v. 72 hours following the final DTX dose. Tumors were harvested at indicated time points and evaluated for protein phosphorylation and expression. Experimental detail provided in supplemental data.
1 million 4T-1 mouse mammary carcinoma cells suspended in 100 µL PBS were injected per left flank of 5-6 week old Balb/C (Charles River, Wilmington Mass.). DTX was dissolved in pure Ethanol at a concentration of 50 mg/ml mixed 1:1 with Polysorbate 80 (Tween 80) and brought to a final working concentration with 5% glucose in PBS. Once Tumors became palpable (˜100 mm^3), DTX or vehicle treatments were administered at 100 μL volumes. Dasatinib was dissolved in DMSO to working concentration and delivered as 50 μL injections on indicated days, 50 µL DMSO used as a control in these studies. Tumor volumes were measured by a third party unaware of treatment conditions using digital calipers (Starlett, Athol, Mass.), volumes were assessed by the following formula: (Width×Width×length)/2 and expressed as relative volume increase from day 1. Tumor homogenate was prepared by homogenization of equal weight tissue sections incubated in 3×RIPA buffer containing 2× protease/phosphatase inhibitor cocktail (Thermo Fisher, Waltham, Mass.).

[4] = test system: 468 parent cells and a subset of DTC; experiment: Survival curves of 468 parent cells and DTC exposed to chemotherapy; type: cell-based, human; settings: 48 h exposure
Procedure: MDA-MB-231, MDA-MB-468 were purchased from ATCC. For acute treatments, cells were plated at a density of 0.5-1×10^5 cells/ml and allowed to adhere for 24-48 hr. when cells reached ˜70% confluency they were treated with antitubulins at indicated concentrations for 4-24 hours and utilized for subsequent assays. To generate chemotherapy tolerant subset, cells were treated with indicated concentrations of chemotherapy (48). Following washes with PBS, adherent cells were trypsinized and re-plated at a density of 1.5-2×10^5 cells/ml and cultured in serum-containing medium. After 24 hours incubation, floating cells were removed and remaining cells were washed with 1×PBS and considered a subpopulation of chemotherapy-tolerant cells. A separate plate of control cells were maintained concurrently in serum containing medium and provided fresh media at every interval where DTC received fresh media. […]
Parent cells DTC or Parent^Phenocopy were generated as described and plated at a concentration of 1.5×10^5 in a clear bottom 96-well plate. […] Drug sensitivity index (SI) was determined as follows: Cell viability was determined as % of control for treatment conditions of 10 nM, 100 nM 1000 nM and 10 μM to generate an average cell viability across these 4 drug concentrations. SI was calculated as a ratio of parent:DTC or parent:parent^phenocopy. […]

AKT and ezrin signaling = experiment: Western blot of AKT, ezrin and ERM signaling in 468 cells treated with DTX +/- erlotinib; type: cell-based, human; settings: 10 nM DTX +/- erlotinib, 24 h
Procedure: MDA-MB-231 (ATCC) were cultured in DMEM containing 10% Fetal Bovine Serum (FBS), MDA-MB-468 MDA-MB-435 and 4T-1 mammary carcinoma cells (ATCC) were cultured in RPMI containing 10% FBS (Invitrogen, Carlsbad Calif.) at 37 C and 5% CO2. During treatments with chemotherapeutics, cells were grown to semi-confluence and treated with indicated concentrations of chemotherapy in serum-containing medium for indicated time points. When small molecule inhibitors were included in treatments, they were added simultaneously with chemotherapy. For siRNA gene knockdown, cells were plated at a concentration of 5×10^4 cells/ml. Pre-validated Silencer Select siRNA targeting pan-CD44 (5′[…]tt3′) (SEQ ID NO: 38) or Ezrin (5′[…]tt3′) (SEQ ID NO: 39) were purchased from Ambion (Invitrogen, Grand Island, N.Y.). siRNA plasmids were transfected using lipofectamine 2000 (Invitrogen, Carlsbad Calif.) following manufacturer protocol and cultured for 72 hours prior to treatment. Scrambled siRNA was used as a control.
Laemli sample buffer was prepared as a 5× solution containing β-mercaptoethanol as a reducing agent. […] Optical densities of western blots were measured using ImageJ™ open source software (National Institutes of Health) and validated using Adobe CS5™.

MDA-MB-231 (231) = experiment: CD44 surface expression by FACS in 231 cells; type: cell-based, human; settings: 231 cells surviving 500 nM doxorubicin
Procedure: MDA-MB-231, MDA-MB-468 were purchased from ATCC. For acute treatments, cells were plated at a density of 0.5-1×10^5 cells/ml and allowed to adhere for 24-48 hr. when cells reached ˜70% confluency they were treated with antitubulins at indicated concentrations for 4-24 hours and utilized for subsequent assays. To generate chemotherapy tolerant subset, cells were treated with indicated concentrations of chemotherapy (48). Following washes with PBS, adherent cells were trypsinized and re-plated at a density of 1.5-2×10^5 cells/ml and cultured in serum-containing medium. […]
Cells were cultured as indicated and fixed with 4% paraformaldehyde in PBS for 30 min at RT and blocked in 10% goat serum (v/v). Following PBS washes, cells were incubated with indicated antibodies for 60 minutes at room temperature or overnight at 4 C and analyzed by FACS (Accuri cyomteters Inc. Ann Arbor, Mich.). Cell cycle analyzed in propidium iodide solution following incubation in 70% Ethanol overnight at 4 C and following manufacturer protocol (Genscript USA Inc. Piscataway, N.J.). AnnexinV/PI was analyzed FACS following manufacturer protocol (BD, Ann Arbor Mich.). All FACS results were analyzed by FlowJo™ software following a rigorous doublet discrimination based on FSC:A vs. width as well as FSC:A vs. height (Tree Star Inc., Ashland Oreg.). […]

Cc1nc(Nc2ncc(C(=O)Nc3c(C)cccc3Cl)s2)cc(N2CCN(CCO)CC2)n1 [dasatinib]
clinical efficacy as single-agent in TNBC (TNBC; Finn et al.): failed as a single-agent | toxicity in clinical trials (TNBC; Herold et al.): significant toxic burden | sensitivity (SI) of 231Phenocopy (231 parent and DTC; 231Phenocopy vs 231 parent): regained parental sensitivity | Sensitivity index (SI) (231 parent and DTC; DTC vs parental cell line, 48 h, average viability across 10 nM, 100 nM, 1000 nM and 10 μM): > 1 | AKT signaling (phosphorylated Akt, western blot) (AKT signaling): reduced, to a minor degree, AKT signaling | dasatinib sensitivity-index in additional DTC subsets [1]: consistent in additional DTC subsets derived from multiple cancer types | cell death in the DTC subset, combination (231 DTC and 468DTC): synergistic induction of cell death | apoptosis, cleaved caspase 3 (IHC) [2]: could re-sensitize the refractory cancer tissue to chemotherapy | caspase 8 levels [2]: no change | tumor growth rate (specific growth rate) ([3]; 'Early Dasatinib', given 72 hours following DTX): significantly augmented the reversal of tumor growth rate | tumor growth rate (specific growth rate) ([3]; 'Late Dasatinib', 216 hours following DTX): ineffective | relative tumor volume ([3]; early treatment group after DTX): tumor regression could be achieved | relative tumor volume ([3]; late treatment after DTX vs matched vehicle control): no difference over a matched vehicle control

CO[C@H]1C(=O)[C@]2(C)[C@@H](OC)C[C@H]3OC[C@@]3(OC(C)=O)[C@H]2[C@H](OC(=O)c2ccccc2)[C@]2(O)C[C@H](OC(=O)[C@H](O)[C@@H](NC(=O)OC(C)(C)C)c3ccccc3)C(C)=C1C2(C)C [cabazitaxel]
susceptibility of DTC to chemotherapy vs parent cell [4]: insensitive

Cc1ccc(NC(=O)c2ccc(CN3CCN(C)CC3)cc2)cc1Nc1nccc(-c2cccnc2)n1 [imatinib]
cell viability of DTC, SFK and BCR-Abl inhibition separately and in combination (231 parent and DTC): dual inhibition does not further augment the sensitivity of the DTC population

Oc1cccc(-c2nc(N3CCOCC3)c3oc4ncccc4c3n2)c1 [PI103]
cell death in the DTC subset, combination (231 DTC and 468DTC): synergistic induction of cell death

C#Cc1cccc(Nc2ncnc3cc(OCCOC)c(OCCOC)cc23)c1 [erlotinib]
ERM-complex signaling (AKT and ezrin signaling): remained intact | induction of AKT and ezrin signaling in response to chemotherapy (AKT and ezrin signaling): prevented induction of AKT and ezrin signaling

COc1cccc2c1C(=O)c1c(O)c3c(c(O)c1C2=O)C[C@@](O)(C(=O)CO)C[C@@H]3O[C@H]1C[C@H](N)[C@H](O)[C@H](C)O1 [doxorubicin]
CD44 expression of doxorubicin tolerant cells (Dox-TC) (MDA-MB-231 (231)): robust expression of CD44 | susceptibility of DTC to chemotherapy vs parent cell [4]: acquired resistance

CC(C)(C)n1nc(-c2ccc(Cl)cc2)c2c(N)ncnc21 [PP2]
cell viability of DTC, SFK and BCR-Abl inhibition separately and in combination (231 parent and DTC): dual inhibition does not further augment the sensitivity of the DTC population
